Data: patent US11458175B2, “Composition comprising Lactobacillus plantarum CJLP475 strain and Lactobacillus plantarum CJLP243 strain and use thereof” (CJ CHEILJEDANG CORPORATION, priority 2018, dated 2022)

Key:
[1] = tested on: porcine epidemic diarrhea virus (PEDV, SM98 or KPEDV9 strain); assay: Inhibitory effect against viral infection, PBMC culture broth on IPEC-J2 cells; type: cell-based; conditions: PBMC culture broth on IPEC-J2, PED virus 100 TCID50/mL, 48 hours
Protocol: In order to measure the inhibitory effect of the composition including the Lactobacillus plantarum CJLP475 strain and the Lactobacillus plantarum CJLP243 strain against viral infection, porcine epidemic diarrhea virus (PEDV, SM98 or KPEDV9 strain) was prepared. Specifically, the virus was proliferated in Vero cells (CCL-81, kidney epithelial cells extracted from Chlorocebus), and MEM (Eagle's Minimum Essential Medium, Gibco BRL, USA), heat-inactivated 10% FBS (fetal bovine serum, v/v) and 1% (v/v) penicillin/streptomycin were as the media for culturing Vero cells. The Vero cells were incubated as a monolayer, washed twice with the media, and then all the solutions were removed. The virus was mixed at 0.1 MOI (multiplicity of infection) level in FBS-free MEM containing trypsin treated with 5 μg/ml TPCK (N-tosyl-L-phenylalanine chloromethyl ketone), treated with a minimal volume of the prepared culture cells, and then incubated in a 37° C. cell incubator containing 5% CO2 for 2 to 3 days.
The viral infection was determined by the formation of virus syncytia. […] Subsequently, the cells were added with a culture broth, in which the virus was subjected to a 2-fold serial dilution, and incubated for 24 to 48 hours to confirm viral infection, and the virus titer was calculated by the Reed & Muench method. […]

[2] = Antibiotic susceptibility test with antibiotic discs; conditions: for resistance to antibiotics: ampicillin, clindamycin, gentamicin, kanamycin, erythromycin, ampicillin/sulbactam, chloramphenicol, streptomycin discs
Protocol: The Lactobacillus plantarum CJLP475 strain and the Lactobacillus plantarum CJLP243 strain were independently inoculated into a liquid MRS medium and subjected to a static culture at 37° C. for 24 hours. The thus-cultured bacteria were soaked in sterilized cotton swabs and smeared on a Mueller Hinton II solid medium (Difco), and then antibiotic discs were placed on the medium and incubated at 37° C. for 24 hours. Ampicillin, clindamycin, gentamicin, kanamycin, erythromycin, ampicillin/sulbactam, chloramphenicol, and streptomycin discs (Oxoid, UK) were used as antibiotic discs for the antibiotic test.

[3] = Bile-resistance assessment in artificial bile medium (viable cell count); type: physicochemical; conditions: artificial bile medium (MRS with 0.5% oxgall), 37° C.
Protocol: An artificial bile medium was prepared for the assessment of bile-resistance. More specifically, the artificial bile medium was prepared by adding 0.5% oxgall (bull bile) to a liquid MRS medium, followed by sterilization.
(§1) The strains of Example 1 were subjected to a static culture in a liquid MRS medium at 37° C. for 18 hours after the second subculture. 1% of the pre-incubated strains were inoculated to the artificial bile medium and subjected to a static culture at 37° C., and the culture broth was sampled at 0 hour and 24 hours. The sampled culture broth was serial diluted and smeared on the solid MRS medium, and incubated at 37° C. for 48 hours to measure viable cell count.
(§2) In order to compare the acid-resistance and bile-resistance of the Lactobacillus plantarum CJLP475 strain and the Lactobacillus plantarum CJLP243 strain with those of the conventionally known strains, the acid-resistance and the bile-resistance of the Lactobacillus plantarum standard strain (KCCM12116) obtained from the Korean Culture Center of Microorganisms were assessed in the same manner as the above method.

[4] = tested on: red blood cells (sheep blood 5% agar); assay: Hemolytic activity on blood agar plates; type: cell-based; conditions: 37° C., 24 hours
Protocol: […]-Hemolysis is a phenomenon in which phospholipids supplied by red blood cells are hydrolyzed by phospholipid enzymes produced from harmful bacteria, resulting in hemolysis of red blood cells. In order to determine the hemolytic activity of the Lactobacillus plantarum CJLP475 strain and the Lactobacillus plantarum CJLP243 strain, blood agar plates (sheep blood 5% agar, Hanilkomed, Korea) were used. The strains were streaked into the prepared blood agar plates and incubated at 37° C. for 24 hours to confirm the hemolysis.

PED virus KPEDV9 = assay: Inhibition of PED virus infection by immune cells of weaned piglets fed with the strains; type: in vivo; design: key: ++: Complete Inhibition; +: Partial Inhibition; −: Infected; conditions: piglets fed 10^10 CFU per day for 3 weeks; for Inhibitory Effect against PED virus infection, mLN, KPEDV9: immune cells of mesenteric lymph nodes; for Inhibitory Effect against PED virus infection, Spin, KPEDV9: immune cells of spleen
Protocol: (§3) In order to confirm the effect of the composition including the Lactobacillus plantarum CJLP243 strain and the Lactobacillus plantarum CJLP475 strain on the immunity upon feeding, an experiment was carried out as follows:
(§4) Thirty-two 21-day-old weaned piglets were purchased and raised in a container farm for 3 weeks. The feed was given in the form of common crumble feeds without antibiotics. The composition including the Lactobacillus plantarum CJLP475 strain and the Lactobacillus plantarum CJLP243 strain was produced in the form of freeze-dried powder and stored in a refrigerator, and each piglet was given the feed in an amount of 10^10 CFU per day. After 3 weeks of oral administration, four piglets per treatment group were autopsied to collect blood and tissue samples so as to determine the effect of the composition on the immunity of the piglets.
(§5) In order to obtain immune cells from the spleen (Spin) and the mesenteric lymph nodes (mLN), the chopped tissue was powdered using a plunger of a syringe and a 70-micrometer cell strainer (BD Falcon), and then the cells were washed using an RPMI-1640 medium (Roswell Park Memorial Institute-1640, Gibco BRL, Grand Island, N.Y., USA). The remaining RBCs (red blood cells) were removed using an RBC lysis buffer (eBioscience, USA) prior to the last washing step. The immune cells collected after the last washing step were stained with Trypan blue and counted with a hemocytometer to be used.
(§6) For evaluation of the inhibitory effect against viral infection, PED virus was incubated in the same manner as in Example 6 described above, and the content thereof was measured. The immune cells obtained from the weaned piglets without feeding of the composition were used as a negative control.

PED virus SM98 = assay: as above; type: in vivo; design: key: ++: Complete Inhibition; +: Partial Inhibition; −: Infected; conditions: piglets fed 10^10 CFU per day for 3 weeks; for Inhibitory Effect against PED virus infection, mLN, SM98: immune cells of mesenteric lymph nodes; for Inhibitory Effect against PED virus infection, Spin, SM98: immune cells of spleen
Protocol: as §3, §4, §5, §6

sows = assay: Effect on immunity and colostrum of sows (IgA and IgG ELISA); type: in vivo; conditions: vs control; for total IgA content in the serum of sows / total IgG content in the serum of sows: sows fed 10^10 to 10^11 CFU per day for 4 weeks
Protocol: An experiment was carried out in order to confirm the effect of the composition including the Lactobacillus plantarum CJLP475 strain and the Lactobacillus plantarum CJLP243 strain on the immunity and colostrum of sows when the composition was given to the sows, as follows: fifteen sows at 6 weeks before delivery in the same delivery period were selected randomly for each experimental group from the farms in which no PED virus had occurred. All of the sows used in the experiment were inoculated with the PED virus vaccine at 5 weeks and 2 weeks before delivery. The experiment was carried out in a total of four experimental groups, i.e., a control group in which no strain was fed, a group fed with CJLP475 alone, a group fed with CJLP243 alone, and a group fed with the composition including CJLP475 strain and CJLP243 strain. The feed was given in the form of common feeds without antibiotics, and water was given to be consumed freely. The Lactobacillus plantarum CJLP475 strain, the Lactobacillus plantarum CJLP243 strain, and the composition were produced in the form of freeze-dried powder and stored in a refrigerator, and then added on top of the feed when given to the sows so that each sow was given the feed in an amount of 10^10 to 10^11 CFU per day according to the treatment conditions. The sows were fed for a total of 4 weeks, and then the serum and colostrum of the sows were examined using an IgA and IgG ELISA kit.

[5] = Acid-resistance assessment in artificial gastric juice medium (viable cell count); type: physicochemical; conditions: artificial gastric juice medium (MRS with pepsin, pH 2.5), 37° C.
Protocol: An artificial gastric juice medium was prepared for the assessment of acid-resistance. More specifically, the artificial gastric juice medium was prepared by adding pepsin to a liquid MRS medium so as to adjust the pH to 2.5, followed by sterilization.
as §1, with “gastric juice” for “bile”, “3” for “24”
as §2

piglets = assay: Immunity of piglets born from fed sows (IgA ELISA); type: in vivo; conditions: 4 days after given colostrum, vs control
Protocol: In order to confirm the effect of the composition including the Lactobacillus plantarum CJLP475 strain and the Lactobacillus plantarum CJLP243 strain on the immunity of piglets born from the sows fed with the composition, an experiment was carried out using sows as in Example 9. Further, blood was collected from the piglets born from the sows 4 days after given colostrum to carry out an immunological analysis using an IgA ELISA kit.

| Substance | inhibitory effect against PED virus infection (microscopy, crystal violet) [1] | resistance to antibiotics [2] | Bile-Resistance Assessment, viable cell count 0 hr [3] | Bile-Resistance Assessment, viable cell count 24 hrs [3] | hemolysis [4] | Inhibitory Effect against PED virus infection, mLN, KPEDV9 (PED virus KPEDV9) | Inhibitory Effect against PED virus infection, Spin, KPEDV9 (PED virus KPEDV9) | Inhibitory Effect against PED virus infection, mLN, SM98 (PED virus SM98) | Inhibitory Effect against PED virus infection, Spin, SM98 (PED virus SM98) | total IgA content in the serum of sows (sows) | total IgG content in the serum of sows (sows) | Acid-Resistance Assessment, viable cell count 0 hr [5] | Acid-Resistance Assessment, viable cell count 3 hrs [5] | also measured |
| --- | --- | --- | --- | --- | --- | --- | --- | --- | --- | --- | --- | --- | --- | --- |
| Lactobacillus plantarum CJLP243 | the virus infection was suppressed | not resistant | 3.2 × 10^7 CFU/mL | 7.3 × 10^8 CFU/mL | did not show hemolysis | ++ | ++ | + | ++ | higher than those in the control group | higher than those in the control group | 4.5 × 10^7 CFU/mL | 4.4 × 10^7 CFU/mL |  |
| Lactobacillus plantarum CJLP475 | the virus infection was suppressed | not resistant | 1.3 × 10^8 CFU/mL | 1.1 × 10^7 CFU/mL | did not show hemolysis | ++ | ++ | ++ | ++ | higher than those in the control group | higher than those in the control group | 1.1 × 10^6 CFU/mL | 1.1 × 10^7 CFU/mL | Radius of Growth Inhibition Area Centered Around Antibiotics ([2]; Amp10 (Ampicillin) disc): 7.5 mm; Radius of Growth Inhibition Area Centered Around Antibiotics ([2]; C30 (Clindamycin) disc): 7 mm; Radius of Growth Inhibition Area Centered Around Antibiotics ([2]; CN120 (Gentamicin) disc): 5 mm; Radius of Growth Inhibition Area Centered Around Antibiotics ([2]; DA2 (Streptomycin) disc): 4.5 mm; Radius of Growth Inhibition Area Centered Around Antibiotics ([2]; E15 (Erythromycin) disc): 12 mm; Radius of Growth Inhibition Area Centered Around Antibiotics ([2]; K30 (Kanamycin) disc): 1.5 mm; Radius of Growth Inhibition Area Centered Around Antibiotics ([2]; S10 (Chloramphenicol) disc): 3.5 mm; Radius of Growth Inhibition Area Centered Around Antibiotics ([2]; SAM20 (Ampicillin/Sulbactam) disc): 7 mm; total IgA content in the piglet serum (piglets): higher; total IgA antibody titer in the colostrum (sows; sow colostrum during delivery): higher |
